From patent US20110123530A1, “COMPOSITIONS AND METHODS FOR TREATING AND DIAGNOSING ASTHMA” (priority 2008, published 2011)

Key:
Assay type in all cases: in vivo, human
Settings in all cases: asthmatics on inhaled corticosteroids (N = 51) vs No ICS (N = 49)
serum IgE = assay: Serum IgE (clinical laboratory or ELISA)
Procedure: (§1) Serum IgE was measured by UCSF clinical laboratories or by ELISA using a human serum IgE ELISA kit according to manufacturer's instructions (Bethyl Laboratories). Serum CEA was measured using a human serum CEA ELISA kit according to manufacturer's instructions (Alpco Diagnostics). We developed an electrochemiluminescent assay (ECLA) to measure serum periostin using anti-periostin antibodies (R&D systems). Briefly, monoclonal anti-periostin was coated onto plates at 1.5 micrograms/ml in sodium carbonate buffer, pH 9.6 overnight at 4° C. Plates were blocked in assay buffer (1×PBS pH 7.4, 0.35 M NaCl, 0.5% BSA, 0.05% Tween 20, 0.25% CHAPS, 5 mM EDTA, 15PPM Proclin)+3% BSA for 2 hours at room temperature, then washed 4× with TBST (Tris-buffered saline+0.1% Tween-20). Serum was diluted 1:5 in assay buffer and incubated with agitation at room temperature for 2 h, then washed 4× with TBST. Recombinant periostin (R&D Systems) was used to establish a standard range. […] Reading buffer (Meso Scale Devices) was added and electrochemiluminescence was read (Meso Scale Devices). […] In addition, we measured IgE and YKL-40, a serum marker previously described to be elevated in some asthmatics, in these same sera. […]

serum YKL-40 = assay: Serum YKL-40 immunoassay
Source text: To determine whether elevated levels of soluble periostin and CEA proteins were detectable in peripheral blood, we examined periostin and CEA in sera from 100 asthmatics and 48 healthy controls using immunoassays. In addition, we measured IgE and YKL-40, a serum marker previously described to be elevated in some asthmatics, in these same sera. […] However, in all cases, there was substantial overlap in serum levels of each biomarker between groups. As shown in Example 8, inhaled corticosteroid (ICS) treatment reduces the bronchial epithelial expression of periostin in asthmatics that have elevated periostin at baseline (see also [8]). Of the 100 asthmatics whose serum we examined, 51 were taking inhaled corticosteroids (ICS) and 49 were not. […] Nevertheless, asthmatics on ICS had higher median serum levels of IgE, periostin, and CEA than healthy controls (Table 13). As shown in FIG. 4 and Table 10, 21/23 asthmatics positive for the bronchial epithelial IL-13 signature (“IL-13 high”) had serum IgE levels greater than 100 IU/ml, although a proportion of “IL-13 low” asthmatics also had elevated IgE. […] As airway expression levels of periostin and CEACAM5 were highly correlated in “IL-13 high” asthmatics, we examined the correlation between serum periostin and CEA across all asthmatics (FIG. 13L).

serum periostin = assay: Serum periostin electrochemiluminescent assay (ECLA)
Procedure: as §1

serum CEA = assay: Serum CEA ELISA
Procedure: as §1

CCC(=O)O[C@]1(C(=O)SCF)[C@H](C)C[C@H]2[C@@H]3C[C@H](F)C4=CC(=O)C=C[C@]4(C)[C@@]3(F)[C@@H](O)C[C@@]21C [fluticasone, fluticasone propionate]
IgE, level of serum biomarker, median (range) (serum IgE): 132 (1-2098) IU/ml
YKL-49, level of serum biomarker, median (range) (serum YKL-40): 72 (24-494) ng/ml
Periostin, level of serum biomarker, median (range) (serum periostin): 48 (0-117) ng/ml
CEA, level of serum biomarker, median (range) (serum CEA): 1.9 (<0.2-21*) ng/ml
